{
  "source": "patent US20130029981A1",
  "about": "“COMPOUNDS, COMPOSITIONS, AND METHODS FOR CONTROLLING BIOFILMS” (Katholieke Universiteit Leuven, priority 2009, published 2013)",
  "key": {"[1]": {"test_system": "S. Typhimurium ATCC14028", "assay": "Bioscreen assay: influence on planktonic growth curve", "type": "cell-based, Salmonella Typhimurium", "design": "key: x: no influence on planktonic growth at the IC50 for biofilm inhibition; planktonic growth is retarded at the IC50 for biofilm inhibition", "conditions": "planktonic growth at the IC50 for biofilm inhibition, 25° C.", "description": "Some of the tested compounds show a concentration range in which biofilm formation is inhibited but no effect on planktonic growth is observed. These compounds are particularly interesting for prevention of biofilm formation since the development of resistance against these compounds is less likely. Table 8 indicates whether the different compounds have an effect on the planktonic growth of the bacteria at the IC50 for biofilm inhibition. To construct Table 8, the effect of the tested compounds on the growth curve of the bacteria was determined at a concentration equal to the IC50 for biofilm inhibition, by using the Bioscreen system available from Oy Growth Curves Ab Ltd). The Bioscreen device from Oy Growth Curves Ab Ltd was used for measuring the influence of the chemical compounds on the planktonic growth of Salmonella Typhimurium and Pseudomonas aeruginosa. The Bioscreen is a computer controlled incubator/reader/shaker that uses 10×10 well microtiter plates and measures light absorbance of each well at a specified wave length in function of time. An overnight culture of S. […] The broth used was TSB 1/20 for the experiments at 16° C. and 25° C. For experiments at 37° C. CFA medium was used for S. […] As a control 3 μl of the appropriate solvent (DMSO or EtOH) was also added to the plate in 3- or 4-fold. The microtiter plate was incubated in the Bioscreen device at 16° C., 25° C. or 37° C. for at least 36 hours, with continious medium shaking. The absorbance of each well was measured at 600 nm each 15 minutes. Excel was used to generate the growth curves for treated the treated wells and the untreated control wells. Some of the compounds show a concentration range in which biofilm formation is inhibited but no effect on the planktonic growth is observed. […] To construct this table the effect of the compounds on the growth curve of the bacteria was determined at a concentration equal to the IC50 for biofilm inhibtion, by using the Bioscreen system from Oy Growth Curves Ab Ltd."}, "[2]": {"test_system": "S. Typhimurium ATCC14028", "assay": "Bioscreen assay: influence on planktonic growth curve", "type": "cell-based, Salmonella Typhimurium", "conditions": "400 μM", "description": "Some of the tested compounds show a concentration range in which biofilm formation is inhibited but no effect on planktonic growth is observed. These compounds are particularly interesting for prevention of biofilm formation since the development of resistance against these compounds is less likely. Table 8 indicates whether the different compounds have an effect on the planktonic growth of the bacteria at the IC50 for biofilm inhibition. To construct Table 8, the effect of the tested compounds on the growth curve of the bacteria was determined at a concentration equal to the IC50 for biofilm inhibition, by using the Bioscreen system available from Oy Growth Curves Ab Ltd). The Bioscreen device from Oy Growth Curves Ab Ltd was used for measuring the influence of the chemical compounds on the planktonic growth of Salmonella Typhimurium and Pseudomonas aeruginosa. The Bioscreen is a computer controlled incubator/reader/shaker that uses 10×10 well microtiter plates and measures light absorbance of each well at a specified wave length in function of time. An overnight culture of S. […] The broth used was TSB 1/20 for the experiments at 16° C. and 25° C. For experiments at 37° C. CFA medium was used for S. […] As a control 3 μl of the appropriate solvent (DMSO or EtOH) was also added to the plate in 3- or 4-fold. The microtiter plate was incubated in the Bioscreen device at 16° C., 25° C. or 37° C. for at least 36 hours, with continious medium shaking. The absorbance of each well was measured at 600 nm each 15 minutes. Excel was used to generate the growth curves for treated the treated wells and the untreated control wells. Some of the compounds show a concentration range in which biofilm formation is inhibited but no effect on the planktonic growth is observed. Table 14 indicates if the different compounds have an effect on the planktonic growth of the bacteria at the IC50 for biofilm inhibition. To construct this table the effect of the compounds on the growth curve of the bacteria was determined at a concentration equal to the IC50 for biofilm inhibtion, by using the Bioscreen system from Oy Growth Curves Ab Ltd."}, "[3]": {"test_system": "S. Typhimurium ATCC14028", "assay": "Static peg assay for prevention of biofilm formation (Calgary device, crystal violet)", "type": "cell-based, Salmonella Typhimurium", "in_short": "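Calgary 96-peg device, ca. 10^6 cells of ATCC14028 per well in TSB 1/20 for 24 h at 25° C (or 48 h at 16° C, medium and compound renewed at 24 h), or in CFA broth for 24 h at 37° C, static, with two-fold compound dilutions. Crystal violet stain, acetic acid extraction, OD570. IC50 from 2–3 independent experiments.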"}, "[4]": {"test_system": "Salmonella Typhimurium ATCC 14028", "assay": "Antibacterial activity: growth inhibition, OD600 after 24 h (GIC50)", "type": "cell-based", "conditions": "25° C.", "description": "Evaluation of antibacterial-inhibitory activity of some substituted 2-amino-1H-imidazoles of the invention was carried out by diluting an overnight culture of Salmonella Typhimurium ATCC 14028 into a liquid medium. 200 μl of the diluted overnight culture was added to each well of a microtiter plate together with different concentrations of the test compound (1/2 dilution series of the compound). After an incubation of 24 hours the optical density at 600 nm of each well was determined with a microtiter plate reader.\nStarting from a 40 mM stock solution of each compound in DMSO, two-fold serial dilutions in 100 μl liquid broth per well were prepared in dublicate in sterile transparant microtiter plates. The broth used was TSB 1/20 for measurements at 25° C. and CFA (in case of Salmonella Typhimurium) and LBNS (in case of Pseudomonas aeruginosa) for measurements at 37° C. Subsequently an overnight culture of the bacteria (S. Typhimurium ATCC14028 or P. aeruginosa PA14) was diluted 1/200 into the corresponding liquid broth and 100 μl was added to each well of the microtiterplate resulting in a total amout of 200 μl medium per well. After an incubation of 24 hours the optical density at 600 nm of each well was determined with a microtiter plate reader (VERSAmax, Molecular Devices).\nEvaluation of antibacterial-inhibitory activity of some substituted imidazo[1,2-a]pyrimidinium bromide salts of the invention was carried out by diluting an overnight culture of Salmonella Typhimurium ATCC14028 or Pseudomonas aeruginosa PA141/200 into liquid medium. 200 μl of the diluted overnight culture was added to each well of a microtiterplate together with different concentrations of the test compound (1/2 dilution series of the compound). After an incubation of 24 hours the optical density at 600 nm of each well was determined with a microtiter plate reader."}, "[5]": {"test_system": "S. Typhimurium SL1344", "assay": "Growth inhibition of planktonic cells in the peg assay plate (OD600)", "type": "cell-based", "conditions": "Salmonella enterica, SL1344, 16° C."}, "[6]": {"test_system": "S. Typhimurium ATCC14028", "assay": "Growth inhibition of planktonic cells in the peg assay plate (OD600)", "type": "cell-based, Salmonella Typhimurium", "conditions": "Salmonella enterica, ATCC14028, 16° C."}, "[7]": {"test_system": "S. Typhimurium SL1344", "assay": "Static peg assay for prevention of biofilm formation (Calgary device, crystal violet)", "type": "cell-based", "conditions": "Salmonella enterica, SL1344, 16° C., read-out: IC50 biofilm inhibition", "description": "After an incubation period of 24 hours at 25° C. or 37° C. or 48 hours at 16° C. the biofilms were visualized by crystal violet staining. […] Biofilm formation assays were carried out at 16° C., 25° C. and 37° C. […] Subsequently, an overnight culture of S. […] The pegged lid was placed on the microtiter plate and the plate was incubated for 48 hours at 16° C. or for 24 hours at 25° C. without shaking. During this incubation period biofilms were formed on the surface of the pegs. In case of the assay at 16° C., after 24 hours the lid was transferred into a new plate with medium and the specific molecules used for testing. […] The remaining attached bacteria were stained for 30 minutes with 200 μl 0.1% (w/v) crystal violet in an isopropanol/methanol/PBS solution (v/v 1:1:18). Excess stain was rinsed off by placing the pegs in a 96-well plate filled with 200 μl distilled water per well. After the pegs were air dried (30 min), the dye bound to the adherent cells was extracted with 30% glacial acetic acid (200 μl). The OD570 of each well was measured using the VERSAmax microtiter plate reader."}, "[8]": {"conditions": "Salmonella enterica, ATCC14028, 16° C., read-out: IC50 biofilm inhibition"}},
  "data": [
    {"smiles": "OC1(c2ccc(F)cc2)C[n+]2cccnc2N1Cc1ccc2c(c1)OCO2.[Br-]", "note": "(stereo not drawn) [Compound 79]", "values": [
      {"measurement": "Influence on growth", "setting": "[1]", "value": "∘"},
      {"measurement": "Effect on growth at 400 μM", "setting": "[2]", "value": "∘"},
      {"measurement": "IC50", "setting": "[3]; 25° C., Table 11, read-out: IC50 (biofilm formation)", "value": 29.4, "unit": "µM"},
      {"measurement": "IC50", "setting": "[3]; 25° C., Table 14, read-out: IC50 biofilm inhibition", "value": 29.4, "unit": "µM"},
      {"measurement": "IC50", "setting": "[3]; 25° C., Table 19, read-out: IC50 (biofilm formation)", "value": 17.2, "unit": "µM"},
      {"measurement": "IC50", "setting": "[4]", "value": 200, "unit": "µM"}
    ]},
    {"smiles": "O=[N+]([O-])c1cccc(C2(O)C[n+]3cccnc3N2C2CCCCCCCCCCC2)c1.[Br-]", "note": "(stereo not drawn) [R1=Cyclododecyl, R3=3-NO2Ph, R4=H, 1-cyclododecyl-2-hydroxy-2-(3-nitrophenyl)-2,3-dihydro-1H-imidazo[1,2-a]pyrimidin-4-ium bromide]", "values": [
      {"measurement": "Influence on growth", "setting": "[1]", "value": "∘"},
      {"measurement": "IC50", "setting": "[3]; Salmonella enterica, 25° C., Table 11, read-out: IC50 (biofilm formation)", "value": "< 6.25", "unit": "µM"},
      {"measurement": "IC50", "setting": "[3]; Salmonella enterica, 25° C., Table 14, read-out: IC50 biofilm inhibition", "value": "< 6.25", "unit": "µM"},
      {"measurement": "IC50", "setting": "[4]; Salmonella enterica", "value": "6 to 12", "unit": "µM"}
    ]},
    {"smiles": "c1ccc(Sc2cccc3ccccc23)c(CNC2=NCCN2)c1", "note": "[Specs3-4]", "values": [
      {"measurement": "IC50", "setting": "[5]", "value": 82.6, "unit": "µM"},
      {"measurement": "IC50", "setting": "[6]", "value": 82.6, "unit": "µM"},
      {"measurement": "IC50", "setting": "[3]; [8]", "value": 16.6, "unit": "µM"},
      {"measurement": "IC50", "setting": "[7]", "value": 15.5, "unit": "µM"}
    ]},
    {"smiles": "Fc1ccc(Sc2ccccc2CNC2=NCCN2)cc1", "note": "[Specs3]", "values": [
      {"measurement": "IC50", "setting": "[5]", "value": 283, "unit": "µM"},
      {"measurement": "IC50", "setting": "[6]", "value": 283, "unit": "µM"},
      {"measurement": "IC50", "setting": "[3]; [8]", "value": 21.9, "unit": "µM"},
      {"measurement": "IC50", "setting": "[7]", "value": "~31.8", "unit": "µM"}
    ]}
  ]
}
